Measurements as given in paper PMC7011974, “Benzimidazole derivatives endowed with potent antileishmanial activity” (Journal of Enzyme Inhibition and Medicinal Chemistry, 2017).
Where “and” joins values, the source holds several entries; their conditions need not be identical. Identical values can stand only once. Like-named read-outs stand apart in the source and are kept apart here.

What was measured:
[1] = tested on: L. tropica promastigotes; assay: Antileishmanial activity on L. tropica promastigotes (MTT); assay type: cell-based, Leishmania tropica; details: for IC50: Leishmania tropica; for IC50 amph. B ×100/IC50 compd., L. tropica: percent of amphotericin B potency, calculated for each experiment
[2] = tested on: human microvascular endothelial cell line (HMEC-1); assay: Cytotoxicity on HMEC-1 cells (MTT); assay type: cell-based; details: for IC50: Homo sapiens, cytotoxicity, HMEC-1 cells, MTT
[3] = tested on: L. infantum promastigotes; assay: Antileishmanial activity on L. infantum promastigotes (MTT); assay type: cell-based, Leishmania infantum; details: for IC50: Leishmania infantum; for IC50 amph. B ×100/IC50 compd., L. infantum: percent of amphotericin B potency, calculated for each experiment
[4] = tested on: L. major (promastigotes); set-up: method as in PMID 20430484, PMID 15183913, PMID 18486471; details: Figure 3; cited from earlier work
[5] = tested on: L. mexicana (promastigotes); set-up: method as in PMID 20430484, PMID 15183913, PMID 18486471; details: Figure 3; cited from earlier work
[6] = tested on: L. donovani (promastigotes); set-up: method as in PMID 20430484, PMID 15183913, PMID 18486471; details: Figure 3; cited from earlier work
[7] = tested on: L. mexicana (amastigotes); set-up: method as in PMID 20430484, PMID 15183913, PMID 18486471; details: Figure 3; cited from earlier work
[8] = tested on: serum cholesterol concentration; set-up: method as in ref 21 = [21]; 21 (a) Sparatore F , Boido V , Fanelli F. Dialkylaminoalkylbenzimi-dazoles of pharmacological interest . Farmaco Sci 1968; 23 : 344 – 59 . (b) Paglietti G , Sparatore F. Dialkylaminoalkyl-benzimidazo; details: hypercholesterolemic mice, 50 mg/kg p.os; cited from earlier work
[9] = in vitro; details: monkey
[10] = tested on: Coxsackie virus B5 (CVB-5); set-up: method as in ref 24c = [24]; 24 (a) Tonelli M , Paglietti G , Boido V , et al Antiviral activity of benzimidazole derivatives. I. Antiviral activity of 1-substituted-2-[(benzotriazol-1/2-yl)methyl]benzimidazoles . Chem Biodivers; details: ref 24c; cited from earlier work
[11] = tested on: intramacrophagic amastigote stage of L. infantum; assay: In vitro intracellular amastigote susceptibility assay in THP-1 macrophages; assay type: cell-based, Leishmania infantum
Protocol: (b) In vitro intracellular amastigote susceptibility assays. […] Cell monolayers were then washed and incubated with compounds for 72 h. Slides were fixed with methanol and stained with Giemsa. The percentage of infected macrophages in treated and non-treated cells was determined by light microscopy.

[12] = tested on: renal cancer cell line UO31; set-up: method as in ref 25b = [25]; 25 (a) Novelli F , Tasso B , Sparatore F. Synthesis and biological investigations of 2-(tetrahydropyran-2'-yl) and 2-(tetrahydrofuran-2'-yl)benzimidazoles . Farmaco 1997; 52 : 499 – 507 . (b) Tonelli; details: ref 25b; cited from earlier work
[13] = tested on: 24 human cancer cell lines; set-up: method as in ref 25b = [25]; 25 (a) Novelli F , Tasso B , Sparatore F. Synthesis and biological investigations of 2-(tetrahydropyran-2'-yl) and 2-(tetrahydrofuran-2'-yl)benzimidazoles . Farmaco 1997; 52 : 499 – 507 . (b) Tonelli; details: ref 25b; read-out: GI50 against 24 human cancer cell lines; cited from earlier work
[14] = tested on: respiratory syncytial virus (RSV); set-up: method as in ref 24c = [24]; 24 (a) Tonelli M , Paglietti G , Boido V , et al Antiviral activity of benzimidazole derivatives. I. Antiviral activity of 1-substituted-2-[(benzotriazol-1/2-yl)methyl]benzimidazoles . Chem Biodivers; details: ref 24c; cited from earlier work
[15] = 72 h, promastigotes, MTT, 72 h, starred values mean of two experiments, read-out: IC50 (µM) L. tropica
[16] = promastigotes, MTT, 72 h, read-out: IC50 (µM) L. infantum

Which IC50 [1, 15] does the source give for `C[C@@H]1[C@H](O)[C@@H](C)/C=C/C=C/C=C/C=C/C=C/C=C/C=C/[C@H](O[C@@H]2O[C@H](C)[C@@H](O)[C@H](N)[C@@H]2O)C[C@@H]2O[C@](O)(C[C@@H](O)C[C@@H](O)[C@H](O)CC[C@@H](O)C[C@@H](O)CC(=O)O[C@H]1C)C[C@H](O)[C@H]2C(=O)O` [Amph. B, amphotericin B, reference compound] here?
Its IC50 is 0.113 ± 0.03 µM.

And the IC50 ([1]; range of values across experiments, read-out: IC50 range over many different experiments, L. tropica)?
Its IC50 is 0.082 to 0.177 µM.

What about the “IC50 amph. B ×100/IC50 compd., L. tropica” value [1] of the same compound?
Its value is 100.

And the IC50 [2]?
The IC50 was 25.7 ± 1.9 µM.

And the “SI L. infantum (IC50 HMEC-1/IC50 L. infantum)” value ([2]; selectivity index, HMEC-1)?
The value was 190.4.

What about the “SI L. tropica (IC50 HMEC-1/IC50 L. tropica)” value ([2]; selectivity index, HMEC-1) of the same compound?
The value was 227.4.

What about the IC50 [3, 16] of the same compound?
The IC50 was 0.135 ± 0.03 µM.

And the IC50 ([3]; range of values across experiments, read-out: IC50 range over many different experiments, L. infantum)?
Its IC50 is 0.094 to 0.209 µM.

What about the “IC50 amph. B ×100/IC50 compd., L. infantum” value [3] of the same compound?
Its value is 100.

What about the IC50 [4] of the same compound?
The IC50 was 610 nM.

Which results are given for `N=C(N)c1ccc(OCCCCCOc2ccc(C(=N)N)cc2)cc1` [pentamidine]?
IC50 [5]: 2420 nM; IC50 [6]: 2200 nM and 2870 nM; IC50 [7]: 9570 nM

For `CCN(CC)CCCn1c(Cc2ccc(Cl)cc2)nc2cc(C(F)(F)F)ccc21` [2-(4-chlorobenzyl)-1-(3-diethylaminopropyl)-5-trifluoromethylbenzimidazole], which “Reduction of serum cholesterol concentration” value [8] is on record?
Its value is over 15%.

Which results are given for `FC(F)(F)c1ccc2c(c1)nc(Cc1ccc(Cl)cc1)n2C[C@@H]1CCCN2CCCC[C@H]12` [Compound 28, 2-(4-chlorobenzyl)-1-lupinyl-5-trifluoromethylbenzimidazole]?
IC50 [1, 15]: 3.7 ± 1.19 µM; IC50 amph. B ×100/IC50 compd., L. tropica [1]: 4.8; IC50 [2]: 16.9 µM; IC50 [9]: > 100000 nM; IC50 [3, 16]: 4.76 ± 1.6 µM; IC50 amph. B ×100/IC50 compd., L. infantum [3]: 4.4; EC50 [10]: 13000 nM; Reduction of the amastigote infection of THP-1 cells ([11]; 2 μM concentration): 33.2%; IC50 ([11]; Leishmania infantum, THP-1 macrophages, 72 h, read-out: IC50 against intramacrophagic amastigote stage of L. infantum): > 2000 nM; GI50 [12]: 19 nM; GI50 [13]: < 5000 nM; EC50 [14]: 15000 nM
